The values below come from patent US20230346717A1, “IDENTIFICATION AND USE OF COMPOUNDS IN THE TREATMENT OR PREVENTION OF SEVERE ACUTE RESPIRATORY SYNDROME CORONAVIRUS 2” (priority 2020, published 2023).

Where a name gives a salt, the structure may show the parent alone.

What all share (assay type): cell-based, human
Data set [1] has as its system ceroid-lipofuscinosis. As to the kind of experiment: Gene expression assay, lysosome gene ceroid-lipofuscinosis. The following applies: ARPE-19/HPV-16, 10 μM, 24 h. The source says: (§1) A drug screen was used to test agents having the potential to treat or prevent SARS-CoV-2 infection. The retinal pigment epithelia cell line, ARPE-19/HPV-16, was chosen to establish a database of drug profiles because of its non-cancerous, human origin, with a normal karyotype. ARPE-19/HPV-16 can be easily grown as monolayer in 96-well plates and expresses a variety of well known, neuronal, cell surface receptors that include the dopamine receptor D2, the serotonin receptors 1A, 2A, and 2C, the muscarinic receptor M3, and the histamine receptor H1.
Cell lines were propagated according to supplier's specifications (ATCC Manassas, VA). Compounds were obtained from Sigma (St. Louis, MO) or Vanda Pharmaceuticals (Washington, DC). Cells were aliquoted on 96-well plates (˜2×10^5 cells/well) and incubated for 24 hours prior to providing fresh media with a drug, or the drug vehicle (water, dimethyl sulfoxide, ethanol, methanol, or phosphate-buffered saline solution). Drugs were diluted 1000-fold in buffered Advanced D-MEM/F-12 culture medium (Invitrogen, Carlsbad, CA) containing nonessential amino acids and 110 mg/L sodium pyruvate. In these conditions, no significant changes of pH were expected, which was confirmed by the monitoring of the pH indicator present in the medium.
A final 10 μM drug concentration was chosen because it is believed to fit in the range of physiological relevance. Microscopic inspection of each well was conducted at the end of the treatment to discard any samples where cells had morphological changes consistent with apoptosis. It was also verified that the drug had not precipitated in the culture medium.
Cells were harvested 24 hours after treatment and RNA was extracted using the RNeasy 96 protocol (Qiagen, Valencia, CA). Gene expression for 22,238 probe sets of 12,490 genes was generated with U133A2.0 microarrays following the manufacturer's instructions (Affymetrix, Santa Clara, CA). Drugs were profiled in duplicate or triplicate, with multiple vehicle controls on each plate. A total of 708 microarrays were analyzed including 74 for 18 antipsychotics, 499 for 448 other compounds, and 135 for vehicle controls.
The raw scan data were first converted to average difference values using MAS 5.0 (Affymetrix). The average difference values of both treatment and control data were set to a minimum threshold of 50 if below 50. For each treatment instance, all probe sets were then ranked based on their amplitude, or level of expression relative to the vehicle control (or average of controls when more than one was used). Amplitude was defined as the ratio of expression (t−v)/[(t+v)/2] where t corresponds to treatment instance and v to vehicle instance. […]

Data set [2] has as its system CTBS. As to the kind of experiment: Gene expression assay, lysosome gene CTBS. The following applies: probe 218924_s_at; ARPE-19/HPV-16, 10 μM, 24 h.
From the text: as §1
(§2) Cell lines were propagated according to supplier's specifications (ATCC Manassas, VA). Compounds were obtained from Sigma (St. Louis, MO) or Vanda Pharmaceuticals (Washington, DC). Cells were aliquoted on 96-well plates (˜2×10^5 cells/well) and incubated for 24 hours prior to providing fresh media with a drug, or the drug vehicle (water, dimethyl sulfoxide, ethanol, methanol, or phosphate-buffered saline solution). Drugs were diluted 1000-fold in buffered Advanced D-MEM/F-12 culture medium (Invitrogen, Carlsbad, CA) containing nonessential amino acids and 110 mg/L sodium pyruvate. […]
(§3) Cells were harvested 24 hours after treatment and RNA was extracted using the RNeasy 96 protocol (Qiagen, Valencia, CA). […] A total of 708 microarrays were analyzed including 74 for 18 antipsychotics, 499 for 448 other compounds, and 135 for vehicle controls. […]

The subject of data set [3] is steroid sulfatase (microsomal). As to the kind of experiment: Gene expression assay, lysosome gene steroid sulfatase (microsomal). Conditions: probe 203767_s_at; ARPE-19/HPV-16, 10 μM, 24 h.
From the text: as §1, §2, §3

Data set [4] has as its system lysosome pathway genes. The experiment in a line: Enrichment analysis of genes downregulated by amantadine (top 500 differentially expressed probes). Conditions: ARPE-19/HPV-16, 10 μM, 24 h.
From the text: as §1, §2, §3

Data set [5] concerns PCYOX1. As to the kind of experiment: Gene expression assay, lysosome gene PCYOX1. The following applies: probe 203803_at; ARPE-19/HPV-16, 10 μM, 24 h.
From the text: as §1, §2, §3

Data set [6] relates to CD164. The experiment in a line: Gene expression assay, lysosome gene CD164. The following applies: probe 208654_s_at; ARPE-19/HPV-16, 10 μM, 24 h.
From the text: as §1, §2, §3

`NC12CC3CC(CC(C3)C1)C2` [Amantadine Hydrochloride]: in data set [1] (probe 204085_s_at), the “avg_tx (log2) ceroid-lipofuscinosis” value turned out to be 5.93 log2 and the “diff (log2) ceroid-lipofuscinosis” value was −1.74 log2. Moreover, in data set [1] (probe 214252_s_at), the “avg_tx (log2) ceroid-lipofuscinosis” value came to 6.13 log2 and the “diff (log2) ceroid-lipofuscinosis” value is recorded as −1.57 log2. Besides, in data set [2], the “avg_tx (log2) CTBS” value is listed as 6.59 log2 and the “diff (log2) CTBS” value is recorded as −1.32 log2. For the same compound, in data set [3], the “avg_tx (log2) steroid sulfatase (microsomal)” value is recorded as 5.55 log2 and the “diff (log2) steroid sulfatase (microsomal)” value is −1.47 log2. Besides, the “expression reduction of the top 500 differentially expressed probes (383 genes)” value in data set [4] was “at least 50%”. For the same compound, in data set [5], the “avg_tx (log2) PCYOX1” value was found to be 7.15 log2 and the “diff (log2) PCYOX1” value is −1.57 log2. In data set [6], the “avg_tx (log2) CD164” value amounted to 8.7 log2 and the “diff (log2) CD164” value is recorded as −1.34 log2.
